{"source": "paper PMC9117149", "about": "“USP14-regulated allostery of the human proteasome by time-resolved cryo-EM” (Nature, 2022)", "key": {"[1]": {"tested_on": "T1, human 26S proteasome, AAA-ATPase motor (RPT1-RPT6)", "T1 construct": "gene PSMC2", "T1 sequence (P35998 2-433)": "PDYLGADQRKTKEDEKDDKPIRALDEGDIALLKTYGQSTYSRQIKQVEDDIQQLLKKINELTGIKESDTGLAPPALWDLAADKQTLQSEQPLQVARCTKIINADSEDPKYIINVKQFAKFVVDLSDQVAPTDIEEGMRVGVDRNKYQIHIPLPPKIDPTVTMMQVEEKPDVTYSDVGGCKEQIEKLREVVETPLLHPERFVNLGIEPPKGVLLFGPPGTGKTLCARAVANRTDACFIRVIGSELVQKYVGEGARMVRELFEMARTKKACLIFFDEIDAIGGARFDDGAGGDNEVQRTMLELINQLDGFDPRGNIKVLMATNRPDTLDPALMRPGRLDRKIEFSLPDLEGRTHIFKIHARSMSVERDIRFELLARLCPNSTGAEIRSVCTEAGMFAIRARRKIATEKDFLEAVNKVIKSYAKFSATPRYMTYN", "T1 sequence (P62191 2-440, further chain)": "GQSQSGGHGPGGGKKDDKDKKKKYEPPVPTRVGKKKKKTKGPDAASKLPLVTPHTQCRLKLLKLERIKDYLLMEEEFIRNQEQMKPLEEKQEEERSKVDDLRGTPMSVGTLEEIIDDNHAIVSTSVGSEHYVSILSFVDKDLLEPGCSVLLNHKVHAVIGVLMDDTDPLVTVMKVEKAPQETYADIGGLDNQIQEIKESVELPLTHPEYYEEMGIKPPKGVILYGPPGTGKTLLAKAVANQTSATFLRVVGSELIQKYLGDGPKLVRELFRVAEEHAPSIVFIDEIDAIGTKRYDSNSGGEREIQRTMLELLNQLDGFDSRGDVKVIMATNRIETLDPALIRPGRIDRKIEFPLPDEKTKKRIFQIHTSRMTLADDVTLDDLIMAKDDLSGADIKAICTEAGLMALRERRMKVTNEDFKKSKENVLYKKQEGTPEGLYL", "T1 sequence (P43686 whole entry, further chain)": "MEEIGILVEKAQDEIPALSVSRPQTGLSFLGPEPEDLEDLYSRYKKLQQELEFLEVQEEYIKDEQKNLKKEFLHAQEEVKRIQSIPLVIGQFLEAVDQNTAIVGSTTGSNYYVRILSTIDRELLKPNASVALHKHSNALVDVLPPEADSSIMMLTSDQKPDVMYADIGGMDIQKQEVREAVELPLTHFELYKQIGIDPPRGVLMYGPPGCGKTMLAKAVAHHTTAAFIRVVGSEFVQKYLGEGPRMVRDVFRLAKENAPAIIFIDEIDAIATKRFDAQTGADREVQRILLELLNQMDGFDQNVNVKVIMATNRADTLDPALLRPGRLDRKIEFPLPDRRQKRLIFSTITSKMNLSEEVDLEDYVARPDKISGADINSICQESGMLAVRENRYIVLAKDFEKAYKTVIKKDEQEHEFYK", "T1 sequence (P62333 whole entry, further chain)": "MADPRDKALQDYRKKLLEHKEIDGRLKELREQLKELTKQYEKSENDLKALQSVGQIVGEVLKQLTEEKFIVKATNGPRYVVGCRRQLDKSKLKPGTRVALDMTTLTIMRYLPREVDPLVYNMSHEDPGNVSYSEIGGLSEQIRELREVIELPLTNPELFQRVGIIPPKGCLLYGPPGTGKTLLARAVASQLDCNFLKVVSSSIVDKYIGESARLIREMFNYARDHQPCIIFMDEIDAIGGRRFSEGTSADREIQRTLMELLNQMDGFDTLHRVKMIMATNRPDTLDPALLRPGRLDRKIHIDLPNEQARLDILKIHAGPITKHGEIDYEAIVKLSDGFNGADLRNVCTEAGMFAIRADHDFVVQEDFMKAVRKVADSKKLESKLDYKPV", "T1 sequence (P17980 whole entry, further chain)": "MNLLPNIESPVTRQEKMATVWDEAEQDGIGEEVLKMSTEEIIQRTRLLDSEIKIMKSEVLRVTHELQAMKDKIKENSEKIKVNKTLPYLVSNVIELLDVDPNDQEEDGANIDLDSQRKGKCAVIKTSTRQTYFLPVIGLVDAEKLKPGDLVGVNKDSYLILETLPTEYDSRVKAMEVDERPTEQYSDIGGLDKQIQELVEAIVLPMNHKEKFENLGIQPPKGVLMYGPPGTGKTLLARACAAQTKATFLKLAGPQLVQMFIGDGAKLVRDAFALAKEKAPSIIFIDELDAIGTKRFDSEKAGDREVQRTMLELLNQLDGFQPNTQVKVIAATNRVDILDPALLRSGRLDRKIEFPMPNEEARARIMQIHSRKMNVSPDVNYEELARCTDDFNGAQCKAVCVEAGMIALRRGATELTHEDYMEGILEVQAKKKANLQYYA", "T1 sequence (P62195 2-406, further chain)": "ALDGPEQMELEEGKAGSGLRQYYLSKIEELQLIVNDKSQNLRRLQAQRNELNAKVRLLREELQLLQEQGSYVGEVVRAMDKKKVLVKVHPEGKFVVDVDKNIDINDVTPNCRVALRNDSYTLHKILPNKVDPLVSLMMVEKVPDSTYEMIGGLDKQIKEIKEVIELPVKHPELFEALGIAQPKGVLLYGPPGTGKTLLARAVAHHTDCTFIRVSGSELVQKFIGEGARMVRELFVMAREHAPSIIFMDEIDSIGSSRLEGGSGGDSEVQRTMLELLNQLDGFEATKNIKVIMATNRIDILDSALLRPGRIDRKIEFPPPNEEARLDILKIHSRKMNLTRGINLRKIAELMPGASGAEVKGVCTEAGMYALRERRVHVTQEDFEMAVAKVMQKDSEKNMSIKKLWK", "details": "0.5 mM ATP, 5 mM MgCl2, pH 7.5, 37 °C, with 300 nM Ubn-Sic1PY and RPN13; USP14-free"}, "[2]": {"target": "T2, human 26S proteasome (peptidase activity) (Homo sapiens, UniProt P28074)", "T2 construct": "gene PSMB5; 20S core particle; with Proteasome subunit beta type-1; Proteasome subunit beta type-2; Proteasome subunit beta type-3; Proteasome subunit beta type-4; Proteasome subunit beta type-6; Proteasome subunit beta type-7", "T2 sequence (P28074 60-263)": "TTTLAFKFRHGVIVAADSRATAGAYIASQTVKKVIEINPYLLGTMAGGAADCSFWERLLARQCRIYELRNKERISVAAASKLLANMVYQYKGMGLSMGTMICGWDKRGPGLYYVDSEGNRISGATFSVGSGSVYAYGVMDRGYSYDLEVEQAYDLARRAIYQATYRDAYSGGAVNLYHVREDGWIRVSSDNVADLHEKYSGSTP", "assay": "AMC fluorescence", "type": "biochemical", "details": "10 μM substrate, 0.1 mM ATP, 0.5 mM MgCl2, 100 mM KCl, pH 7.5, 37 °C; USP14-free (also with USP14 variants)"}}, "note": "Numbered stars: 1 amine (or outer) side, 2 acyl side, 3 side chain; on linkers, the order of the positions; unused ones are H or OH. Peptide text beside a SMILES is read from it. * marks the point of attachment. AMC = Cc1cc(=O)oc2cc(N*)ccc12; Suc = O=C(CCC(=O)[*:2])[*:1]", "data": [{"compound": "Nc1ncnc2c1ncn2[C@@H]1O[C@H](COP(=O)(O)OP(=O)(O)OP(=O)(O)O)[C@@H](O)[C@H]1O", "note": "[ATP]", "values": [{"measurement": "malachite green phosphate release", "setting": "[1]", "value": "ATPase activity was quantified using malachite green phosphate assay kits"}]}, {"compound": "Cc1cc(=O)oc2cc(NC(=O)[C@H](Cc3ccc(O)cc3)NC(=O)[C@@H](NC(=O)[C@H](CC(C)C)NC(=O)[C@H](CC(C)C)NC(=O)CCC(=O)O)C(C)C)ccc12", "note": "[Suc-LLVY-AMC] (Suc-LLVY-{AMC})", "values": [{"measurement": "AMC fluorescence", "setting": "[2]", "value": "Peptide hydrolysis by the human proteasomes was measured using fluorogenic substrate Suc-LLVY-AMC"}]}]}
